Data from PMC10349806 (Nature Communications, 2023).
“And” between values parts separate entries of the source, which are not always exact repeats. Equal entries are not always repeated.

Molecular target: T1, PfCRT variant E372A (Plasmodium falciparum, UniProt Q9N623, A220S/E372A/I356T/K76T/M74I/N326S/N75E/Q271E/R371I)
T1 sequence (Q9N623 1-424 M74I/N75E/K76T/A220S/Q271E/N326S/I356T/R371I/E372A): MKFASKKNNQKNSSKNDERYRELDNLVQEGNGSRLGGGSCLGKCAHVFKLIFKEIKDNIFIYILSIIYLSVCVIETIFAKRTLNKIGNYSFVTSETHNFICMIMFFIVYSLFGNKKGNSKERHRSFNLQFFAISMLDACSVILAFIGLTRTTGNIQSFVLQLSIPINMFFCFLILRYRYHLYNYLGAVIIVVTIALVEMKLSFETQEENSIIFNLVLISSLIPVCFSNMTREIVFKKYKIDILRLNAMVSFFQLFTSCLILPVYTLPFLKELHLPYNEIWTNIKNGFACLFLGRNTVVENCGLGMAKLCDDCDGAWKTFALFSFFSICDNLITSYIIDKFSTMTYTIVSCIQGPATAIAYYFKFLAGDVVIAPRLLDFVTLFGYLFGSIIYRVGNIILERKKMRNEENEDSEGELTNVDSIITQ
Experiment: CQ uptake assay, oocytes expressing E372A
Format: cell-based
Protocol: Site-directed mutagenesis of PfCRT^Dd2 was performed as described using the megaprimer method with overlap extension[21],[54]. The primer pairs used are listed in Supplementary Table 6. Please note that a codon-optimized and oocyte-adapted version of PfCRT^Dd2 was used[22] (Supplementary Fig. 16). The resulting DNA fragment was cloned into the SP64T expression vector and verified by sequencing.
Oocytes were obtained as described previously. Briefly, adult (>2 years old) female X. laevis frogs (NASCO) were anesthetized in a cooled solution of ethyl 3-amino benzoate methanesulfonate (0.1%, w/v), followed by a surgical removal of parts of the ovary. The ovary lobes were carefully dissected and small pieces of oocytes were incubated in Ca^2+-free ND96 buffer (96 mM NaCl, 2 mM KCl, 1 mM MgCl2 buffered with 5 mM HEPES/NaOH, pH 7.5) supplemented with collagenase D (0.1%, w/v; Roche), BSA (0.5%, w/v), and 9 mm Na2HPO4 at 18 °C for 14-16 h while gentle shaking. After incubation, the oocytes were carefully washed several times with ND96 buffer (96 mM NaCl, 2 mM KCl, 1.8 mM CaCl2, 1 mM MgCl2 buffered with 5 mM HEPES/NaOH, pH 7.5) supplemented with 100 mg l^−1 gentamycin). Defolliculated and healthy-looking stage V-VI oocytes were manually selected for RNA microinjection. The RNA was generated as following: The codon-optimized sequences of PfCRT variants were cloned into the pSP64T expression vector. After vector linearization using the restriction endonucleases BamHI or SalI (New England Biolabs), transcription was performed using the in vitro SP6 mMessage mMachine Kit (Ambion)[34]. The obtained RNA was kept at −80 °C and diluted with nuclease-free water to a concentration of 0.6 μg μl^−1. Precision-bore glass capillary tubes (3.5-inch glass capillaries; Drummond Scientific Co.) were pulled on a vertical puller (P-87 Flaming/Brown micropipette puller, Sutter Instrument Co.), graduated, and placed on a microinjector (Nanoject II Auto-Nanoliter Injector, Drummond Scientific Co.). 50 nl of nuclease-free water alone (control oocytes) or 50 nl of 0.6 μg μl^−1 RNA were injected under stereomicroscopic control. Injected oocytes were incubated for 46–72 h at 18 °C with twice-daily buffer changes before usage in experiments.
Drug uptake assays were performed as described previously[21],[22],[24],[34]. […] The direction of radio-labeled drug transport is here from the mostly acidic extracellular solution (pH 4.5 or 6.0, as indicated) into the oocyte cytosol (pH ∼ 7.2), which corresponds to the efflux of drug from the acidic digestive vacuole (pH 5.2) into the parasite cytoplasm (pH 7.2). The topology of PfCRT in the oolemma is such that both the N- and C-terminus face the extracellular milieu[3],[22]. In the parasite, the N- and C-terminus face the lumen of the digestive vacuole. CQ uptake kinetics were performed by incubating oocytes in ND96 buffer adjusted to a pH of 4.5, 5.0, 5.5, or 6.0 and supplemented with 50 nM [^3H]CQ and one of 7 different CQ concentrations (10 µM, 50 µM, 100 µM, 200 µM, 300 µM, 400 µM, 500 µM CQ). The reaction was stopped at the 60 min time point, which is in the linear uptake range[22],[34] (Supplementary Fig. 17). For determination of the amount of drug uptake for each oocyte, the reaction medium was removed and the oocytes were washed three times with 2 ml of ice-cold ND96 buffer. Each oocyte was individually transferred to a scintillation vial containing 5% sodium dodecyl sulfate (200 μl) for lysis. The radioactivity of each sample was measured using a liquid scintillation analyzer Tri-Carb 4910 TR (PerkinElmer). Oocytes that were injected with water instead of RNA were analyzed in parallel, representing the uptake of a drug by diffusion and/or endogenous permeation pathways. The resulting value represents the “background“ level of drug accumulation in oocytes (in-depth discussion in[22]). […]

[1] = E372A, 50 µM CQ, 1 h, mean ± SEM

Structure (SMILES): CCN(CC)CCCC(C)Nc1ccnc2cc(Cl)ccc12 (stereo not shown) [CQ, chloroquine]
- Activity at pH 4.5 [1]: 2.23 ± 0.25 pmol h-1 oocyte-1
- Activity at pH 6.0 [1]: 4.71 ± 0.40 pmol h-1 oocyte-1
- R-value (E372A, CQ transport at pH 4.5 / pH 6.0): 0.49 ± 0.08 and 0.49
- E372A transport activity pH 4.5 (pH 4.5, individual replicates (Fig 6a)): 3.05 pmol oocyte-1 h-1 and 1.75 pmol oocyte-1 h-1 and 2.16 pmol oocyte-1 h-1 and 1.95 pmol oocyte-1 h-1
- E3723A transport activity pH 4.5 (pH 4.5, single replicates, Fig 1d left): 3.05 pmol oocyte-1 h-1 and 1.75 pmol oocyte-1 h-1 and 2.16 pmol oocyte-1 h-1 and 1.95 pmol oocyte-1 h-1
- E372A transport activity pH 6.0 (individual replicates (Fig 6a)): 4.02 pmol oocyte-1 h-1 and 4.13 pmol oocyte-1 h-1 and 6.01 pmol oocyte-1 h-1 and 4.68 pmol oocyte-1 h-1
- E372A transport activity pH 6.0 (single replicates, Fig 1d left): 4.02 pmol oocyte-1 h-1 and 4.13 pmol oocyte-1 h-1 and 6.01 pmol oocyte-1 h-1 and 4.68 pmol oocyte-1 h-1
